Literature values, collected in patent US6441198B1, “Podophyllotoxin dimer as DNA topoisomerase II inhibitors, and a process for the preparation therefore” (Council of Scientific and Industrial Research, priority 2000, dated 2002).

Tests used:
[1] = system: cellular protein-DNA complex formation; conditions: relative to etoposide
[2] = system: human tumour cell lines
[3] = system: human DNA topoisomerase II; conditions: relative to etoposide

Question: Which “activity in cellular protein-DNA complex formation compared to etoposide” value [1] does the source give for COc1cc(C2c3cc4c(cc3C(Nc3ccc(F)cc3)C3COC(=O)C23)OCO4)cc(OC)c1O (stereo not drawn) [NPF, 4′-0-demethyl-4β-(4″-fluoroanilino)-4-desoxypodophyllotoxin] here?
Answer: 113 times

Question: What about the “activity in in vitro human tumour cell lines assay” value [2] of the same compound?
Answer: very active

Question: And the “potency in inhibiting human DNA topoisomerase II compared to etoposide” value [3]?
Answer: 10 fold
